Test results taken from the supplement of paper PMC10883282.

Tests used:
Assay in all cases: relative viability vs DMSO control (72 h) (fraction); higher = more viable cells
SW872 = test system: SW872
Outline: (§1)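 A 5 µM positive control and 0.1% DMSO vehicle ran alongside sarcoma cell lines seeded in 384-well plates to reach 80–90% confluence. Serially diluted compound, 2.5 µl from source plates of 10 mM to 0.0002 mM, was added after 24 h, and the plates were held 72 h at 37 °C, 5% CO2. Relative viability was worked out from ATPLite readings as percent growth averaged over up to triplicate wells. The values were rescaled so that 1 is full and 0 is none.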

VA-ES-BJ = test system: VA-ES-BJ
Outline: as §1

SW1353 = test system: SW1353
Outline: as §1

A204 = test system: A204
Outline: as §1

SK-LMS-1 = test system: SK-LMS-1
Outline: as §1

G401 = test system: G401
Outline: as §1

KHOS-240S = test system: KHOS-240S
Outline: as §1

RD = test system: RD
Outline: as §1

HS729 = test system: HS729
Outline: as §1

SW982 = test system: SW982
Outline: as §1

MES-SA = test system: MES-SA
Outline: as §1

SK-ES-1 = test system: SK-ES-1
Outline: as §1

CO[C@@H]1[C@H](N(C)C(=O)c2ccccc2)C[C@H]2O[C@]1(C)n1c3ccccc3c3c4c(c5c6ccccc6n2c5c31)C(=O)NC4 [Midostaurin]
Conditions | relative viability
A204, 0.00017 µM | 1.04
A204, 0.00051 µM | 1.03
A204, 0.00152 µM | 1.02
A204, 0.00457 µM | 0.997
A204, 0.01372 µM | 1.01
A204, 0.04115 µM | 0.961
A204, 0.1235 µM | 0.792
A204, 0.3704 µM | 0.485
A204, 1.111 µM | 0.263
A204, 3.333 µM | 0.192
A204, 10 µM | 0.157
G401, 0.00017 µM | 0.948
G401, 0.00051 µM | 0.976
G401, 0.00152 µM | 0.98
G401, 0.00457 µM | 0.969
G401, 0.01372 µM | 0.953
G401, 0.04115 µM | 0.878
G401, 0.1235 µM | 0.854
G401, 0.3704 µM | 0.678
G401, 1.111 µM | 0.436
G401, 3.333 µM | 0.229
G401, 10 µM | 0.159
HS729, 0.00017 µM | 0.927
HS729, 0.00051 µM | 0.913
HS729, 0.00152 µM | 0.914
HS729, 0.00457 µM | 0.921
HS729, 0.01372 µM | 0.874
HS729, 0.04115 µM | 0.828
HS729, 0.1235 µM | 0.791
HS729, 0.3704 µM | 0.684
HS729, 1.111 µM | 0.368
HS729, 3.333 µM | 0.269
HS729, 10 µM | 0.273
KHOS-240S, 0.00017 µM | 1.04
KHOS-240S, 0.00051 µM | 1.04
KHOS-240S, 0.00152 µM | 1.03
KHOS-240S, 0.00457 µM | 1.04
KHOS-240S, 0.01372 µM | 1.02
KHOS-240S, 0.04115 µM | 0.937
KHOS-240S, 0.1235 µM | 0.797
KHOS-240S, 0.3704 µM | 0.536
KHOS-240S, 1.111 µM | 0.256
KHOS-240S, 3.333 µM | 0.143
KHOS-240S, 10 µM | 0.09613
MES-SA, 0.00017 µM | 0.87
MES-SA, 0.00051 µM | 0.8799
MES-SA, 0.00152 µM | 0.889
MES-SA, 0.00457 µM | 0.885
MES-SA, 0.01372 µM | 0.891
MES-SA, 0.04115 µM | 0.866
MES-SA, 0.1235 µM | 0.818
MES-SA, 0.3704 µM | 0.408
MES-SA, 1.111 µM | 0.251
MES-SA, 3.333 µM | 0.139
MES-SA, 10 µM | 0.0904
RD, 0.00017 µM | 1.06
RD, 0.00051 µM | 1.06
RD, 0.00152 µM | 1.07
RD, 0.00457 µM | 1.09
RD, 0.01372 µM | 1.09
RD, 0.04115 µM | 1.05
RD, 0.1235 µM | 0.989
RD, 0.3704 µM | 0.731
RD, 1.111 µM | 0.46
RD, 3.333 µM | 0.415
RD, 10 µM | 0.42
SK-ES-1, 0.00017 µM | 0.994
SK-ES-1, 0.00051 µM | 0.969
SK-ES-1, 0.00152 µM | 0.931
SK-ES-1, 0.00457 µM | 0.985
SK-ES-1, 0.01372 µM | 0.987
SK-ES-1, 0.04115 µM | 0.966
SK-ES-1, 0.1235 µM | 0.898
SK-ES-1, 0.3704 µM | 0.266
SK-ES-1, 1.111 µM | 0.0642
SK-ES-1, 3.333 µM | 0.0543
SK-ES-1, 10 µM | 0.0611
SK-LMS-1, 0.00017 µM | 0.981
SK-LMS-1, 0.00051 µM | 0.972
SK-LMS-1, 0.00152 µM | 0.987
SK-LMS-1, 0.00457 µM | 1.02
SK-LMS-1, 0.01372 µM | 1.02
SK-LMS-1, 0.04115 µM | 0.946
SK-LMS-1, 0.1235 µM | 0.793
SK-LMS-1, 0.3704 µM | 0.564
SK-LMS-1, 1.111 µM | 0.392
SK-LMS-1, 3.333 µM | 0.36
SK-LMS-1, 10 µM | 0.364
SW872, 0.00017 µM | 0.976
SW872, 0.00051 µM | 1
SW872, 0.00152 µM | 0.965
SW872, 0.00457 µM | 0.958
SW872, 0.01372 µM | 0.945
SW872, 0.04115 µM | 0.896
SW872, 0.1235 µM | 0.826
SW872, 0.3704 µM | 0.592
SW872, 1.111 µM | 0.399
SW872, 3.333 µM | 0.253
SW872, 10 µM | 0.219
SW982, 0.00017 µM | 1
SW982, 0.00051 µM | 0.978
SW982, 0.00152 µM | 0.979
SW982, 0.00457 µM | 0.931
SW982, 0.01372 µM | 0.93
SW982, 0.04115 µM | 0.939
SW982, 0.1235 µM | 0.821
SW982, 0.3704 µM | 0.375
SW982, 1.111 µM | 0.19
SW982, 3.333 µM | 0.124
SW982, 10 µM | 0.122
SW1353, 0.00017 µM | 0.918
SW1353, 0.00051 µM | 0.927
SW1353, 0.00152 µM | 0.9048
SW1353, 0.00457 µM | 0.916
SW1353, 0.01372 µM | 0.883
SW1353, 0.04115 µM | 0.879
SW1353, 0.1235 µM | 0.712
SW1353, 0.3704 µM | 0.411
SW1353, 1.111 µM | 0.272
SW1353, 3.333 µM | 0.229
SW1353, 10 µM | 0.218
VA-ES-BJ, 0.00017 µM | 0.978
VA-ES-BJ, 0.00051 µM | 0.943
VA-ES-BJ, 0.00152 µM | 0.974
VA-ES-BJ, 0.00457 µM | 0.978
VA-ES-BJ, 0.01372 µM | 0.958
VA-ES-BJ, 0.04115 µM | 0.945
VA-ES-BJ, 0.1235 µM | 0.917
VA-ES-BJ, 0.3704 µM | 0.668
VA-ES-BJ, 1.111 µM | 0.372
VA-ES-BJ, 3.333 µM | 0.269
VA-ES-BJ, 10 µM | 0.181
